Assays:
Human (6-His)Sortilin = molecular target: T1, Human (6-His)Sortilin (Homo sapiens, UniProt Q99523); assay: Human Sortilin GCI (Grating-Coupled Interferometry) binding assay; conditions: Creoptix WAVE-RAPID, single concentration (usually 1 µM, 10 µM or 100 µM), immobilised Human (6-His)Sortilin, 1:1 kinetic binding model
T1 construct: purchased RnD Systems
T1 sequence (Q99523 78-755 limits assumed): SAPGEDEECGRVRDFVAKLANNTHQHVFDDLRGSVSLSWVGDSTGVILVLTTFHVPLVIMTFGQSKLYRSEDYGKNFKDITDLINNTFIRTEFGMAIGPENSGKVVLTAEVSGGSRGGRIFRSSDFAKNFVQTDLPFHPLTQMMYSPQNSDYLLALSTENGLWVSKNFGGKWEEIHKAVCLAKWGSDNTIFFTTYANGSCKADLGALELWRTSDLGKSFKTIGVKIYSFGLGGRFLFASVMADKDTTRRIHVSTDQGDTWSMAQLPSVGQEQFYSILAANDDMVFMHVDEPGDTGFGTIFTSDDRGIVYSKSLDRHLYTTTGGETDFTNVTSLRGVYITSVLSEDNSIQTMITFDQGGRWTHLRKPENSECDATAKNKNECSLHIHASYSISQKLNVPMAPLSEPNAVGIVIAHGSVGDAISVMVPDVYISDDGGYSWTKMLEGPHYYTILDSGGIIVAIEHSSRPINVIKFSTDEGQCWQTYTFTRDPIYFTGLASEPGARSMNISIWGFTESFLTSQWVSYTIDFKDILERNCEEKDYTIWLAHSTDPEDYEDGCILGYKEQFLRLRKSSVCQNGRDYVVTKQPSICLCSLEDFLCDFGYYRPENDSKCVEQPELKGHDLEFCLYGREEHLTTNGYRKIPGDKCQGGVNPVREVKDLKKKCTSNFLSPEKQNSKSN

h-Sortilin = molecular target: T2, h-Sortilin (Homo sapiens, UniProt Q99523); assay: Neurotensin scintillation proximity assay (SPA); conditions: displacement of [3H]-neurotensin binding to h-Sortilin; 150 nM 6his-Sortilin, 5 nM [3H]-Neurotensin; average of at least 2 determinations
T2 sequence (Q99523 78-831): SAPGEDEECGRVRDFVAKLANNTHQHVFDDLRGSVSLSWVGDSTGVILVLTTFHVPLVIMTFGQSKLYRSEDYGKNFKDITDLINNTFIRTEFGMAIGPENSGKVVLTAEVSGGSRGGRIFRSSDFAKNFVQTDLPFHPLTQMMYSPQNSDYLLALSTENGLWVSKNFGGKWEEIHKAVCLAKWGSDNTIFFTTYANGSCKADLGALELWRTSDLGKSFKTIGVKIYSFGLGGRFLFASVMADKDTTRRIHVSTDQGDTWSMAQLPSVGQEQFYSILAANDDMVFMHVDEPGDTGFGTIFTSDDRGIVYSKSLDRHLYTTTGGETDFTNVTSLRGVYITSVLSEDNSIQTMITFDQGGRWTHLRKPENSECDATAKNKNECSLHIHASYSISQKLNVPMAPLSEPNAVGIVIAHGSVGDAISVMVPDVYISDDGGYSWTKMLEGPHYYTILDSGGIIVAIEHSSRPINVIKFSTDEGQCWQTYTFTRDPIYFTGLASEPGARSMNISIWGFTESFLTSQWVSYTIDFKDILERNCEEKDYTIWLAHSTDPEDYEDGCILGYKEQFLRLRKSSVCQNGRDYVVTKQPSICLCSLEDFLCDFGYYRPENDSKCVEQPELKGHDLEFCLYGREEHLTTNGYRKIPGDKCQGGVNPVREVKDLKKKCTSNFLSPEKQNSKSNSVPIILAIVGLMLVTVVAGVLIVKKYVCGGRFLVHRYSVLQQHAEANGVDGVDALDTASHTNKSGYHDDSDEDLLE
Method: NTS, which is a 13 amino acid neuropeptide, is a sortilin ligand.
Compound affinity was determined by measuring the displacement of [^3H]-neurotensin binding to h-Sortilin in SPA format. Total volume of 40 µl in 50 mM HEPES pH 7.4 assay buffer containing 100 mM NaCl, 2.0 mM CaCl2, 0.1% BSA and 0.1% Tween-20. Compound pre-incubation for 30 minutes at room temperature with 150 nM of 6his-Sortilin before 5 nM [3H]-Neurotensin and Ni chelate imaging beads (Perkin Elmer) were added, after 6 hours the plate was read on a ViewLux with 360 s exposure time. Dose-response evaluation of compounds was performed with 8 concentrations of drugs (covering 3 decades). IC50 values were calculated by nonlinear regression using the sigmoid concentration-response (variable slope) using CDD Vault software. All values reported are average of at least 2 determinations.

What does the source list for CC(C)(C)CCC(Nc1ccccn1)c1nn[nH]n1 (racemic) [Example 68, N-2-pyridyl[4,4-dimethyl-1-(2H-tetraazol-5-yl)pentyl]amine]?
Kd (Human (6-His)Sortilin): 7.57 µM; IC50 (h-Sortilin): 10 µM

With CC(C)(C)CCC(Nc1cccnc1)c1nn[nH]n1 (racemic) [Example 69, N-3-pyridyl[4,4-dimethyl-1-(2H-tetraazol-5-yl)pentyl]amine] as the compound, how does the Kd (Human (6-His)Sortilin) read?
The Kd was 1.8 µM.

What about the IC50 (h-Sortilin) of the same compound?
The IC50 was 10 µM.

Which Kd (Human (6-His)Sortilin) does the source give for CC(C)(C)CC[C@H](Nc1ccccn1)C(=O)O [Example 2, (S)-5,5-dimethyl-2-(2-pyridylamino)hexanoic acid] here?
Its Kd is 2.23 µM.

What about the IC50 (h-Sortilin) of the same compound?
The IC50 was 2.2 µM.

With CC(C)(C)CC[C@H](Nc1cnccn1)C(=O)O [Example 4, (S)-5,5-dimethyl-2-(2-pyrazinylamino)hexanoic acid] as the compound, how does the Kd (Human (6-His)Sortilin) read?
The Kd was 5.57 µM.

And the IC50 (h-Sortilin)?
The IC50 was 1.07 µM.

For CC(C)(C)CC[C@H](Nc1ncccn1)C(=O)O [Example 5, (S)-5,5-dimethyl-2-(2-pyrimidinylamino)hexanoic acid], which Kd (Human (6-His)Sortilin) is on record?
The Kd was 13.2 µM.

And the IC50 (h-Sortilin)?
Its IC50 is 1.19 µM.

Which Kd (Human (6-His)Sortilin) does the source give for CC(C)(C)CC[C@H](Nc1cncnc1)C(=O)O [Example 6, (S)-5,5-dimethyl-2-(5-pyrimidinylamino)hexanoic acid] here?
Its Kd is 4.05 µM.

What about the IC50 (h-Sortilin) of the same compound?
Its IC50 is 1.24 µM.

Which Kd (Human (6-His)Sortilin) does the source give for CC(C)(C)CC[C@H](Nc1ccncn1)C(=O)O [Example 7, (S)-5,5-dimethyl-2-(4-pyrimidinylamino)hexanoic acid] here?
The Kd was 8.28 µM.

And the IC50 (h-Sortilin)?
The IC50 was 1.14 µM.

With CC(C)(C)CC[C@H](Nc1ncnc2ccccc12)C(=O)O [Example 8, (S)-5,5-dimethyl-2-(4-quinazolinylamino)hexanoic acid] as the compound, how does the Kd (Human (6-His)Sortilin) read?
Its Kd is 0.116 µM.

And the IC50 (h-Sortilin)?
Its IC50 is 0.325 µM.

For Cc1nccc(N[C@@H](CCC(C)(C)C)C(=O)O)n1 [Example 23, (S)-5,5-dimethyl-2-(2-methyl-4-pyrimidinylamino)hexanoic acid], which Kd (Human (6-His)Sortilin) is on record?
Its Kd is 0.108 µM.

And the IC50 (h-Sortilin)?
Its IC50 is 1.31 µM.

How did the Kd (Human (6-His)Sortilin) turn out when Cc1cc(N[C@@H](CCC(C)(C)C)C(=O)O)ncn1 [Example 24, (S)-5,5-dimethyl-2-(6-methyl-4-pyrimidinylamino)hexanoic acid] was run?
Its Kd is 0.429 µM.

What about the IC50 (h-Sortilin) of the same compound?
Its IC50 is 2.87 µM.

Cc1cc(N[C@@H](CCC(C)(C)C)C(=O)O)nc(C)n1 [Example 25, (S)-2-(2,6-dimethyl-4-pyrimidinylamino)-5,5-dimethylhexanoic acid] was tested. Which Kd (Human (6-His)Sortilin) did it give?
Its Kd is 0.499 µM.

And the IC50 (h-Sortilin)?
The IC50 was 1.56 µM.

Which Kd (Human (6-His)Sortilin) does the source give for Cc1cccc2c(N[C@@H](CCC(C)(C)C)C(=O)O)ncnc12 [Example 26, (S)-5,5-dimethyl-2-(8-methyl-4-quinazolinylamino)hexanoic acid] here?
Its Kd is 0.0541 µM.

What about the IC50 (h-Sortilin) of the same compound?
Its IC50 is 1.83 µM.

How did the Kd (Human (6-His)Sortilin) turn out when Cc1cncc(N[C@@H](CCC(C)(C)C)C(=O)O)n1 [Example 27, (S)-5,5-dimethyl-2-(6-methyl-2-pyrazinylamino)hexanoic acid] was run?
The Kd was 0.664 µM.

And the IC50 (h-Sortilin)?
Its IC50 is 0.51 µM.

Which results are given for CC(C)(C)CC[C@H](Nc1cncc(Oc2ccccc2)n1)C(=O)O [Example 28, (S)-5,5-dimethyl-2-(6-phenoxy-2-pyrazinylamino)hexanoic acid]?
Kd (Human (6-His)Sortilin): 0.525 µM; IC50 (h-Sortilin): 0.67 µM

What does the source list for CC(C)(C)CC[C@H](Nc1cccnc1)C(=O)O [Example 31, (S)-5,5-dimethyl-2-(3-pyridylamino)hexanoic acid]?
Kd (Human (6-His)Sortilin): 1.71 µM; IC50 (h-Sortilin): 1.81 µM
